Reference: patent US20080318938A1, “METHODS FOR TREATING ABERRANT CELL PROLIFERATION DISORDERS” (priority 2007, published 2008)
Read-outs that look alike come from different tables or passages of the source.

Key:
[1] = tested on: σ (non-selective) sigma receptors; experiment: Receptor binding
[2] = tested on: sst (non-selective) Somatostatin receptor; experiment: Receptor binding
[3] = target: Adenosine A2A receptors (Homo sapiens, UniProt P29274); experiment: Receptor binding
[4] = tested on: bone marrow cells (BMCs); experiment: RNA synthesis and cell viability of bone marrow cells from treated rats; assay type: in vivo; conditions: 10 mg/kg daily for 5 days, BMCs isolated 24 hours after last dose
Experimental: Rats were treated with 10 milligrams per kilogram of Compound TA1-1B daily for five (5) days. Twenty-four (24) hours after the last dose the bone marrow was isolated, and bone marrow cells (BMCs) were tested for RNA synthesis activity and cell viability
The following process was utilized to measure total RNA synthesis. For animals treated with compound TA1-1B, BMCs were isolated and plated overnight at 100,000 cells per mL. Next day cells were incubated for one hour with 5 μCi of [^3H]-uridine. To measure total RNA synthesis, total RNA from treated cells was isolated with a RNease kit (QIAGEN), levels of total RNA were assessed with Ribogreen reagent (Invitrogen) and the newly synthesized tritiated RNA was measured in a scintillation Counter (Perkin Elmer) in a tritium channel.
The following process was utilized to measure cell viability, which involves the use of an Alamar Blue dye. Cells are counted using a hemocytometer, and 4,000-5,000 cells (per well) in 100 microliter of medium are seeded into wells 96-well plate. […] Fluorescence is recorded at an excitation wavelength of 544 nm and emission wavelength of 590 nm using a microplate reader. Fluorescence of […] dye is detected and effects of drug treatment on BMC viablity is determined.

[5] = target: M1 Muscarinic receptor (Homo sapiens, UniProt P11229); experiment: Receptor binding
[6] = Distribution in human whole blood fractions (LC-MS/MS); assay type: in vitro ADME
Experimental: Twenty five mL healthy donor whole blood was collected in the presence of heparin. Human whole blood was added with Compound TA1-1B to reach final concentration of 3 uM. Whole blood was gently mized and incubated at 37° C. for 4 hrs. At the end of the incubation 0.5 mL blood was collected and centrifuge at 500×g to separate the platelet-rich plasma for further analysis.
In order to isolate white blood cells, 5 ml of treated blood was subjected to Ficoll density gradient centrifugation. At the end of the centrifugation formed buffy coat containing most of the white blood cells and Ficolle fractions containing red blood cells and granulocites were collected separately. Obtained white cell fraction was washed with 5 ml of isotonic phosphate buffer and saved for further analysis. Obtained fractions were subjected to Compound TA1-1B quantitative analysis using LC-MS/MS. Fractions obtained from untreated whole blood were used as corresponding biological matrices in LC-MS/MS based bioanalysis.
The most part of added compound (93.7%) was found in blood formed elements than in plasma indicating to a potentially high volume of distribution and good tissue penetration of compound TA1-1B.

[7] = target: M2 Muscarinic receptor (Homo sapiens, UniProt P08172); experiment: Receptor binding
[8] = Tissue distribution in rats (in vivo pharmacokinetic study); design: species or system Sprague Dawley rats
Experimental: Five groups (three animals per group) of male Sprague Dawley rats were assigned for in vivo pharmacokinetic study. • Group-1 animals were dosed intravenously with compound TA1-1B at 7.5 mg/kg and after 2 hr post-dose animals were terminated and whole blood, plasma, brain, bone marrow and adrenal gland collected. • Group-2 animals were dosed intravenously with compound TA1-1B at 7.5 mg/kg for five consecutive days. After 2 hr of the last dose (98 hr) animals were terminated and whole blood, plasma, brain, bone marrow and adrenal gland collected. • Group-3 animals were dosed intravenously with compound TA1-1B at 7.5 mg/kg for five consecutive days. After 26 hr of the last dose (122 hr) animals were terminated and whole blood, plasma, brain, bone marrow and adrenal gland collected. • Group-4 animals were dosed intravenously with compound TA1-1B at 7.5 mg/kg for five consecutive days. After 50 hr of the last dose (146 hr) animals were terminated and whole blood, plasma, brain, bone marrow and adrenal gland collected. • Group-5 animals were dosed intravenously with vehicle, terminated and whole blood, plasma, brain, bone marrow and adrenal gland collected. Tissues obtained from this group of animals were used for corresponding matrix preparation in subsequent bioanalysis.
After administration the compound TA1-1B quickly reaches those tissues (after 2 hr) and subsequently gets cleared.

[9] = TA1-1B in plasma, brain and tumor of HCT116 tumor-bearing mice; assay type: in vivo; conditions: 25.0 mg/kg single IV dose; for concentration at 15 min / concentration at 2 h: female, NCr nu/nu, mouse; for concentration at 15 min: 15 min post-dose; for concentration at 2 h: two hour post-dose
Excerpt: In vivo experiment protocols were approved by the Animal Use and Care Committee. Female NCr nu/nu mice were purchased from Taconic Farms and group housed in a ventilated rack system on a 12/12 light cycle. All housing materials and water were autoclaved prior to use. The mice were fed ad libitum with gamma-irradiated laboratory chow and acidified water. Animals were handled under laminar-flow hoods. Animals were inoculated subcutaneously in the right flank with 5×10̂6 HCT116 cells. Tumors were monitored twice weekly and then daily as they approached the appropriate size for study. On Day 1 of the study, the animals were randomized into n=3 treatment groups with group average tumor sizes of 109 mm^3.
where w=width and 1=length in mm of the tumor. Tumor weight was estimated with the assumption that 1 mg is equivalent to 1 mm^3 of tumor volume. Mice were dosed with compound TA1-1B at 25.0 mg/kg (single IV dose). At fifteen min and two hour time points, plasma, brain and tumor samples were collected from terminal mice and frozen. It was determined that the tumor contained 0.86 μM, plasma contained 0.74 μM and brain contained 1.47 μM of the therapeutic agent after 15 min post-dose, and the tumor contained 1.6 μM, plasma contained 0.41 μM and brain contained 0.8 μM of the therapeutic agent after the two hour post-dose.

[10] = 3 uM, 37° C., 4 hrs, White cells
[11] = 7.5 mg/kg intravenously (FIG. 3)
[12] = 7.5 mg/kg intravenously, time point not stated, unit from FIG. 2 legend
[13] = brain, read-out: Concentration in brain
[14] = plasma, read-out: Concentration in plasma
[15] = tumor, read-out: Concentration in tumor

Chain of Adenosine A2A receptors (P29274 whole entry): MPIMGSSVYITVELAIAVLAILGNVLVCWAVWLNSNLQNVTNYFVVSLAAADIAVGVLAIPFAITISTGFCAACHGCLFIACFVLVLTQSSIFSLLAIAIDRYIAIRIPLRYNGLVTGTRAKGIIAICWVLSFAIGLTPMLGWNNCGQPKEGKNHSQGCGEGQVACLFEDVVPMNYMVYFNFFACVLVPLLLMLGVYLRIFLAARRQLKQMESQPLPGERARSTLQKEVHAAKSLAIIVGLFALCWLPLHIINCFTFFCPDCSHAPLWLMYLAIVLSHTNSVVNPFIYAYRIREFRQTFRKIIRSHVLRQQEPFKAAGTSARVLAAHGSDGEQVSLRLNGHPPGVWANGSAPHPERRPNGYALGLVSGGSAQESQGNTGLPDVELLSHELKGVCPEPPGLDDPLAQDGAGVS
Chain of M1 Muscarinic receptor (P11229 whole entry): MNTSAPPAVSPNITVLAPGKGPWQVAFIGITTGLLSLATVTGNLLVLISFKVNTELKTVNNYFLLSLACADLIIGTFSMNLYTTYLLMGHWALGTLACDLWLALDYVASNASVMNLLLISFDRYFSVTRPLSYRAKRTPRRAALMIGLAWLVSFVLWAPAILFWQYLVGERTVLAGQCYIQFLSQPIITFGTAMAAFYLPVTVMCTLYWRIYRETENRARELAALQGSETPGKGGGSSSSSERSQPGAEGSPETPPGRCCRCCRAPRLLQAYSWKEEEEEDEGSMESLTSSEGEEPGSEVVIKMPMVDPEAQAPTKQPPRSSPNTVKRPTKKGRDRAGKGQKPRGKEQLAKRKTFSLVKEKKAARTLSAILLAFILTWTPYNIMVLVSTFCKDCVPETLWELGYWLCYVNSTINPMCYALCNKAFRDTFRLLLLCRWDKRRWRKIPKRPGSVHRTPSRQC
Chain of M2 Muscarinic receptor (P08172 whole entry): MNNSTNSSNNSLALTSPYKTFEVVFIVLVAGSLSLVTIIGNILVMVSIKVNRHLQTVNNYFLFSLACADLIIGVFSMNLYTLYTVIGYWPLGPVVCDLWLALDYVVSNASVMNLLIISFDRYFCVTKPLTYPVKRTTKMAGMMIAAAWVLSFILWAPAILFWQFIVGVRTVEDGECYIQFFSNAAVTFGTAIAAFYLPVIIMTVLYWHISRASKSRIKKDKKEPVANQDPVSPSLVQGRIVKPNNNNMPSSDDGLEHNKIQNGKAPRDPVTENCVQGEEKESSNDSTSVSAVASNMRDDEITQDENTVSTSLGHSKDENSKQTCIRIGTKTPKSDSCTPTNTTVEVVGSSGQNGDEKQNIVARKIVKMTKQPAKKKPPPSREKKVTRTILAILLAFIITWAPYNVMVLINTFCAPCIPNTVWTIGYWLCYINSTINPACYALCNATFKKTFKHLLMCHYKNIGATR

In the case of `CN1CCC[C@H]1CCNC(=O)c1cn2c3c(c(N4CCC(c5cnccn5)C4)c(F)cc3c1=O)Oc1cc3ccccc3cc1-2` (some centres unmarked) [TA1-1B], the “% inhibition @ 1 uM” value [1] is reported as 67%, the “% inhibition @ 1 uM” value [2] is reported as 62% and the inhibition at 1 µM [3] is reported as 60%. The “Toxicity to bone marrow cells (RNA synthesis and cell viability)” value [4] was “not toxic”, the inhibition at 1 µM [5] was 98% and the “Mass balance Amount” value ([6]; 3 uM added, 5 mL) was 14.7 nmol. For the same molecule, the “Mass balance Conc.” value ([6]; 3 uM added, 5 mL) was 2.95 µM, the “% of compound in plasma fraction” value ([6]; 3 uM, 37° C., 4 hrs, Plasma) was 6.2% and the “Amount in plasma fraction” value ([6]; 3 uM, 37° C., 4 hrs, Plasma) was 0.92 nmol. The “Conc. in plasma fraction” value ([6]; 3 uM, 37° C., 4 hrs, Plasma) was 370 nM, the “% of compound in red cells fraction” value ([6]; 3 uM, 37° C., 4 hrs, Red cells) was 81.5% and the “Amount in red cells fraction” value ([6]; 3 uM, 37° C., 4 hrs, Red cells) was 12.0 nmol. The “Conc. in red cells fraction” value ([6]; 3 uM, 37° C., 4 hrs, Red cells) was 4850 nM, the “Total amount in all fractions” value ([6]; 3 uM, 37° C., 4 hrs, Total) was 14.7 nmol and the “% of compound in white cells fraction” value [6, 10] was 12.2%. For the same molecule, the “Amount in white cells fraction” value [6, 10] was 1.8 nmol, the “Conc. in white cells fraction” value [6, 10] was 81790 nM and the “Part of added compound found in blood formed elements” value ([6]; 3 uM, 37° C., 4 hrs, red and white cells versus plasma) was 93.7%. The inhibition at 1 µM [7] was 92%, the “Exposure in adrenal glands and bone marrow relative to other tissues” value [8, 11] was “highest exposures” and the “Retention in adrenal glands and bone marrow versus brain” value [8, 11] was “retains longer”. The “Elimination from rat brain tissue” value ([8]; 7.5 mg/kg intravenously QDx5, over 48 hr post-dose (FIG. 2)) was “almost completely eliminates”, the “Concentration in brain tissue” value [8, 12] was 1600 nM and the Concentration in plasma [8, 12] was 200 nM. For the same molecule, the “Concentration in whole blood” value [8, 12] was 500 nM, the Blood-brain barrier permeation ([9]; heading of Example 3) was “Permeates the Blood-Brain Barrier” and the concentration at 15 min [9, 13] was 1470 nM. It also gave a concentration at 2 h [9, 13] of 800 nM, a concentration at 15 min [9, 14] of 740 nM and a concentration at 2 h [9, 14] of 410 nM. For the same molecule, the concentration at 15 min [9, 15] was 860 nM and the concentration at 2 h [9, 15] was 1600 nM.
